Assay results from patent publication US20130085260A1, “METHOD FOR THE IDENTIFICATION OF T CELL EPITOPES” (CENTRE H[…] L'UNIVERSITE DE MONTREAL, priority 2010, published 2013).

Legend:
Type in all cases: cell-based, human
[1] = tested on: M1^58-66-specific T cells (M1-CD8); details: EBV-B cells pulsed with peptide; negative specificity control
M1-CD4 T cell clone = test: IFN-γ secretion (ELISA) by M1-CD4 T cell clone co-cultured with peptide-pulsed EBV-B cells; details: EBV-B cells pulsed with synthetic peptide; HLA-DR-restricted
Description: Antigen-specific bulk T cells from peripheral blood mononuclear cells stimulated with autologous CD4O-B cells electroporated with M1 or NP DNA plasmids were cloned by limiting dilution and cultured as previously described.^8
Synthetic peptides were added to EBV-B cells at a final concentration of 1 to 10 μg/mL for MHC class 110-mer peptides (50 μg/mL for longer peptides) (Table 2) for 3 hours at 37° C. 5% CO2, and then washed once to remove unbound peptides. T-cell clones were washed and cultured for 4 hours in Iscove's complete medium supplemented with 120 IU/ml of interleukin-2 (IL-2). T cell clones' reactivity to MHC-restricted epitopes was tested on the basis of interferon-γ cytokine secretion as described previously.^7

NP-CD8 T cell clone = details: EBV-B cells pulsed with synthetic peptide, 1 to 10 μg/mL for 10-mer, 50 μg/mL for longer peptides, 3 hours

Row | Sequence | recognition by M1-CD4 T cell clone (IFN-γ production) (M1-CD4 T cell clone) | recognition by NP-CD8 T cell clone (IFN-γ production) (NP-CD8 T cell clone) | other results
1 | IMDQVPFSV [gp100^209-218 peptide] | – | – | recognition by M1^58-66-specific T cells (IFN-γ production) [1]: did not recognize
2 | YRKLKREITF | specifically recognized | – | –
3 | LSAFDERRNKYLEEHPSAG [Peptide 1-6] | – | well recognized | –
4 | NGNGDPNNMDKAVKL [Peptide b] | weakly recognized | – | –
5 | AFDERRNKYL [Peptide 2] | – | more weakly but nevertheless specifically recognized | –
